Assay results taken from patent US10413583B2, “Synthetic substrates for enzymes that catalyze reactions of modified cysteines and related methods” (The University of Chicago, priority 2016, dated 2019).

Experiments:
HEK293T cells = assay: Live cell fluorescence imaging and flow cytometry of DPP-2 and DPP-3 in HEK293T cells; format: cell-based, human; details: for effect of inhibitor on DPP-3 signal: 1 μM PalmB, 1 μM ML348, 1 or 5 μM ML349 (FIGS. 10, 11)
Description: HEK293T (650,000 cells per dish) cells were plated with 1.5 mL of Dulbecco's Modified Eagle Medium (DMEM) (High Glucose, 10% fetal bovine serum (FBS)) in a 35 mm glass bottom dish (D35-10-1.5-N; Cellvis, Mountain View, Calif., United States of America) 24 hrs prior to imaging. 30 min before the addition of the DPP probe, the cell culture media was removed and cells were washed with 1 mL of Delbecco's phosphate-buffered saline (DPBS). The media was then replaced with 1 mL of DMEM containing 1 μM Hoechst 33342 and either 0.1% DMSO carrier as a control, 1 or 2 μM Palm B, 0.1, 1.0, or 5 μM ML348, and incubated for 30 min at 37° C. and 5% CO2. The media was removed, the cells were washed with 1 mL of Live Cell Imaging Solution (Thermo Fisher Scientific, Waltham, Mass., United States of America), and 1 mL of 1 μM DPP-2 or DPP-3 in Live Cell Imaging Solution was added to each plate. For ML348 0.1, 1.0, or 5 μM was added along with DPP-2 or DPP-3. After incubation for 15 min at 37° C. and 5% CO2, images were obtained on an inverted epi-fluorescence microscope (Olympus IX83; Olympus Corporation, Tokyo, Japan) attached with EMCCD camera (Photometrics EVOLVE™ Delta; Photometrics, Tucson, Ariz., United States of America) with 40× oil objective (N/A 1.3) for DPP-2 (excitation filter 500/20, dichroic chroma 89007, emission filter 535/30, exposure time 200 ms, EM gain 25), Hoechst 33342: (excitation filter 402/15, emission filter 455/50, dichroic chroma 89013, exposure time 30 ms, EM gain 25), and brightfield (exposure time 5 ms, EM gain 5), and for DPP-3 (exposure time 500 ms, EM gain 150), Hoechst 33342: (exposure time 30 ms, EM gain 25), and brightfield (exposure time 20 ms, EM gain 5). Analyses were performed in ImageJ. For data analysis, the average fluorescence intensity per image in each experimental condition was obtained by selecting regions of interest (ROIs) in the brightfield image. For display, the data were normalized to the average fluorescence intensity of the control conditions. Each experiment was repeated at least three separate times with identical results.
Cells were plated on a 10 cm dish with 10 mL of DMEM/High Glucose (10% FBS, 1% P/S, L-Glutamine, Sodium pyruvate) 36-48 hours prior to the day of experiment and maintained at 37° C., 5% CO2 so as to obtain 80-90% confluency. Cells were washed with DPBS and trypsinized with 1 mL 0.05% Trypsin. 5 mL of DMEM/High Glucose (10% FBS, L-Glutamine, Sodium pyruvate) was added and cells were spun down at 1200 rpm for 3 min. Media was discarded and cells were resuspended in 5 mL of Live Cell Imaging Solution and again spun down at 1200 rpm for 3 min. The cells pellets obtained were resuspended in 3-5 mL of Live Cell Imaging Solution and divided into 500 μL aliquots. The aliquots were treated with either 0.2% DMSO carrier or 1 μM of PalmB/ML348 or 1 μM/5 μM of ML349 inhibitor. After 30 min of incubation at room temperature, 1 μL of 2.5 mM DPP-3 in DMSO was added to each aliquot for a final concentration of 5 μM, and the solutions were mixed. After 5 min incubation at room temperature, fluorescence signal in FITC channel was measured for 10000 cells (5000 for HeLa experiments) on a LSR-Fortessa 4-15 HTS (BD digital instrument, 488 nm laser with 530/30 nm filter for FITC; BD, Franklin Lakes, N.J., United States of America). For analyzing DPP2 in HEK293T cells, the aliquots were treated with either 0.2% DMSO carrier or 2 μM of PalmB, 5 or 20 μM of ML348/ML349 and then analyzed by the protocol as mentioned above. Data was analyzed by FlowJo software version 10.0.8. For comparison of A431 starved versus non-starved, parallel 10 cm dishes of A431 cells were plated in 10 mL of DMEM (high glucose, 10% FBS, 1% P/S), and grown for 36 h. The growth media was removed, and replaced by 10 mL of either DMEM (High glucose) with 10% FBS to maintain “growth” conditions, or DMEM (High glucose) without FBS respectively for “starvation” conditions, and incubated for 14 h. […]

MDA-MB-231 cells = assay: Flow cytometry of DPP-3 in MDA-MB-231 cells; format: cell-based, human; details: MDA-MF-231 as printed; 1 μM inhibitor; 5 μM DPP-3, 5 min
Description: Cells were plated on a 10 cm dish with 10 mL of DMEM/High Glucose (10% FBS, 1% P/S, L-Glutamine, Sodium pyruvate) 36-48 hours prior to the day of experiment and maintained at 37° C., 5% CO2 so as to obtain 80-90% confluency. Cells were washed with DPBS and trypsinized with 1 mL 0.05% Trypsin. 5 mL of DMEM/High Glucose (10% FBS, L-Glutamine, Sodium pyruvate) was added and cells were spun down at 1200 rpm for 3 min. Media was discarded and cells were resuspended in 5 mL of Live Cell Imaging Solution and again spun down at 1200 rpm for 3 min. The cells pellets obtained were resuspended in 3-5 mL of Live Cell Imaging Solution and divided into 500 μL aliquots. The aliquots were treated with either 0.2% DMSO carrier or 1 μM of PalmB/ML348 or 1 μM/5 μM of ML349 inhibitor. After 30 min of incubation at room temperature, 1 μL of 2.5 mM DPP-3 in DMSO was added to each aliquot for a final concentration of 5 μM, and the solutions were mixed. After 5 min incubation at room temperature, fluorescence signal in FITC channel was measured for 10000 cells (5000 for HeLa experiments) on a LSR-Fortessa 4-15 HTS (BD digital instrument, 488 nm laser with 530/30 nm filter for FITC; BD, Franklin Lakes, N.J., United States of America). For analyzing DPP2 in HEK293T cells, the aliquots were treated with either 0.2% DMSO carrier or 2 μM of PalmB, 5 or 20 μM of ML348/ML349 and then analyzed by the protocol as mentioned above. Data was analyzed by FlowJo software version 10.0.8. For comparison of A431 starved versus non-starved, parallel 10 cm dishes of A431 cells were plated in 10 mL of DMEM (high glucose, 10% FBS, 1% P/S), and grown for 36 h. The growth media was removed, and replaced by 10 mL of either DMEM (High glucose) with 10% FBS to maintain “growth” conditions, or DMEM (High glucose) without FBS respectively for “starvation” conditions, and incubated for 14 h. After trypsinization, both plates were treated with 5 mL of DMEM (high glucose) for spinning the cells down, and further processing and analysis were performed as described above by flow cytometry.

SMILES | effect of inhibitor on DPP-3 signal (HEK293T cells) | effect of inhibitor on DPP-2 fluorescent signal (HEK293T cells; 5 μM inhibitor) | effect of inhibitor on depalmitoylation signal measured by DPP-3 (MDA-MB-231 cells) | effect of inhibitor on DPP-2 fluorescent signal (HEK293T cells; 2 μM inhibitor)
O=C(CN1CCN(C(=O)c2ccco2)CC1)Nc1cc(C(F)(F)F)ccc1Cl [ML348] | lower amounts of PalmB or ML348 were needed to perturb the signal | perturbed | knocks down the depalmitoylation signal | 
COc1ccc(N2CCN(C(=O)c3cc4c(s3)-c3ccccc3S(=O)(=O)C4)CC2)cc1 [ML349] | not substantially perturbed | perturbed |  | 
CCCCCCCCCC[C@@H]1C(=O)O[C@H]1CCc1ccc(OC)c(OC)c1 [PalmB, palmostatin B] | lower amounts of PalmB or ML348 were needed to perturb the signal |  | knocks down the depalmitoylation signal | perturbed
